Assay results reported in article PMC4158450 (Bioorganic & medicinal chemistry letters, 2014).

Assays:
rA3AR = settings: in words; cited from earlier work
hA3AR [1] = biological target: T1, hA3AR (Homo sapiens, UniProt P0DMS8); settings: 1S,2R diastereoisomer of 2 vs 1R,2S isomer; cited from earlier work
T1 sequence (P0DMS8 1-318): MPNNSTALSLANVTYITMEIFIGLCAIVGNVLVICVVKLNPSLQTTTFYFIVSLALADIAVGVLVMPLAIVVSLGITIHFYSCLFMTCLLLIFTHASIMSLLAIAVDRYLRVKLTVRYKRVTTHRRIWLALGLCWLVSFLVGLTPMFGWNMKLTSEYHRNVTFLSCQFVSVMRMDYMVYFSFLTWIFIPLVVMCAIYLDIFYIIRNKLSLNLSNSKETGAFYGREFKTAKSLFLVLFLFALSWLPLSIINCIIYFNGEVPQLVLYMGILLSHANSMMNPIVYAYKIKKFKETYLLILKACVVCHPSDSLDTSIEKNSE

hA2AAR = hA2AAR (Homo sapiens, UniProt P29274); experiment: hA2AAR radioligand binding
Sequence of hA2AAR (P29274 whole entry): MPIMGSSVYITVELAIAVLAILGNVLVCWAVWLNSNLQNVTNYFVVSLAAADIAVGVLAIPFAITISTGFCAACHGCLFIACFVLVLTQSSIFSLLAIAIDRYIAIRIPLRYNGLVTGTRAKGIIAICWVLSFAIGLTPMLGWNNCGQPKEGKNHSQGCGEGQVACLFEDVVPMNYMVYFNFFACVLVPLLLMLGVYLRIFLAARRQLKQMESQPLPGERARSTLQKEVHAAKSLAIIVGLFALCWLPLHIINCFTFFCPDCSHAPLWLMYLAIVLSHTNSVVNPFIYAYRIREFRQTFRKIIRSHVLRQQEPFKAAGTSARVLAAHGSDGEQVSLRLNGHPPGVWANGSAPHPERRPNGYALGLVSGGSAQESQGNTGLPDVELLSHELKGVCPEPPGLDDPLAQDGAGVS

hA3AR [2] = biological target: T1, hA3AR; experiment: hA3AR radioligand binding; settings: in words, vs hA1AR and hA2AAR
[3] = system: chronic neuropathic pain (mechanoallodynia), CCI model; experiment: chronic constriction injury; format: in vivo, mouse; settings: mice, oral administration

In the case of `OC[C@H]1O[C@@H](n2cnc3c(NC4CC4c4ccccc4)nc(C#Cc4ccccc4)nc32)[C@H](O)[C@@H]1O` (some centres unmarked) [Compound 1], the “affinity at the rA3AR as compared to the hA3AR” value (rA3AR) is listed as “substantially lower affinity”.

For `O=[N+]([O-])c1cccc(C2CC2Nc2nc(C#Cc3ccccc3)nc3c2ncn3[C@@H]2O[C@H](CO)[C@@H](O)[C@H]2O)c1` (some centres unmarked) [Compound 2], the “fold more potent in binding to the hA3AR than the corresponding 1R,2S isomer” value (hA3AR [1]) is given as ~ 10 fold.

`CNC(=O)[C@@]12C[C@@H]1[C@@H](n1cnc3c(N)nc(C#Cc4ccccc4)nc31)[C@H](O)[C@@H]2O` [Compound 9] showed a Ki (hA2AAR) of roughly 1000 nM.

For `CNC(=O)[C@@]12C[C@@H]1[C@@H](n1cnc3c(NC4CC4c4ccc(F)c(F)c4)nc(C#Cc4ccccc4)nc31)[C@H](O)[C@@H]2O` (some centres unmarked) [Compound 15], the “selectivity for the A3AR” value (hA3AR [2]) was “very selective”.

For `CNC(=O)[C@@]12C[C@@H]1[C@@H](n1cnc3c(N[C@@H]4C[C@H]4c4ccc(F)c(F)c4)nc(C#Cc4ccccn4)nc31)[C@H](O)[C@@H]2O` [Compound 18], the “time of peak effect post-administration” value [3] was 1 h.
